Experiments:
[1] = system: AV5 primary melanoma cell line; test: Cell viability assay (ATP quantitation); type: cell-based, human; conditions: 50 nM, 5 days (120 hrs), vs non-targeting control
Method: (§1) EsiRNA, siRNA and ASO GapmeRs were transfected in a final concentration of 50 nM unless mentioned otherwise and the transfection reagent Lipofectamine 3000 (2 ul/ml) was added according to the manufacturer's instructions.
(§2) Dependent on cell doubling time, 0.7-2×10^^3 cells were seeded in 96 well plates. 1 day after seeding cells were incubated in media with oligonucleotide concentration and/or MEKi and transfection reagent. 3 (synergy experiments) or 5 (solely ASO) days after transfection Total luminescence was measured on the SynergyHT plate reader (BioTek) using Gen5 software.

D04 melanoma cell line = test: Cell viability assay (ATP quantitation); type: cell-based, human; conditions: 50 nM, 5 days (120 hrs), vs non-targeting control
Method: as §1, §2

[2] = system: Hs852.T primary melanoma cell line; test: Cell viability assay (ATP quantitation); type: cell-based, human; conditions: 50 nM, 5 days (120 hrs), vs non-targeting control
Method: as §1, §2

MM415 melanoma cell line = test: Cell viability assay (ATP quantitation); type: cell-based, human; conditions: 50 nM, 5 days (120 hrs), vs non-targeting control
Method: as §1, §2

[3] = system: Sk-Mel-2 melanoma cell line; test: Cell viability assay (ATP quantitation); type: cell-based, human; conditions: 50 nM, 5 days (120 hrs), vs non-targeting control
Method: as §1, §2

[4] = system: Sk-Mel-28 melanoma cell line; test: Cell viability assay (ATP quantitation); type: cell-based, human; conditions: 50 nM, 5 days (120 hrs), vs non-targeting control
Method: as §1, §2

VMM39 melanoma cell line = test: Cell viability assay (ATP quantitation); type: cell-based, human; conditions: 50 nM, 5 days (120 hrs), vs non-targeting control
Method: as §1, §2

[5] = system: WM1366 melanoma cell line; test: Cell viability assay (ATP quantitation); type: cell-based, human; conditions: 50 nM, 5 days (120 hrs), vs non-targeting control
Method: as §1, §2

[6] = system: WM3211 melanoma cell line; test: Cell viability assay (ATP quantitation); type: cell-based, human; conditions: 50 nM, 5 days (120 hrs), vs non-targeting control
Method: as §1, §2

[7] = system: WM3629 melanoma cell line; test: Cell viability assay (ATP quantitation); type: cell-based, human; conditions: 50 nM, 5 days (120 hrs), vs non-targeting control
Method: as §1, §2

[8] = system: A-172 Glioblastoma cell line; test: Cell viability assay (ATP quantitation); type: cell-based; conditions: 50 nM, 5 days, vs non-targeting control
Method: as §1, §2

[9] = system: H1299 lung cancer cell line; test: Cell viability assay (ATP quantitation); type: cell-based; conditions: 50 nM, 5 days, vs non-targeting control
Method: as §1, §2

[10] = system: H82 lung cancer cell line; test: Cell viability assay (ATP quantitation); type: cell-based; conditions: 50 nM, 5 days, vs non-targeting control
Method: as §1, §2

[11] = system: H929 multiple myeloma cell line; test: Cell viability assay (ATP quantitation); type: cell-based; conditions: 50 nM, 5 days, vs non-targeting control
Method: as §1, §2

[12] = system: HCT116 colon carcinoma cell line; test: Cell viability assay (ATP quantitation); type: cell-based; conditions: 50 nM, 5 days, vs non-targeting control
Method: as §1, §2

[13] = system: L363 multiple myeloma cell line; test: Cell viability assay (ATP quantitation); type: cell-based; conditions: 50 nM, 5 days, vs non-targeting control
Method: as §1, §2

MM485 melanoma cell line = test: Cell viability assay (ATP quantitation); type: cell-based; conditions: 50 nM, 5 days, vs non-targeting control
Method: as §1, §2

[14] = system: SW1271 lung cancer cell line; test: Cell viability assay (ATP quantitation); type: cell-based; conditions: 50 nM, 5 days, vs non-targeting control
Method: as §1, §2

[15] = system: SW480 colon carcinoma cell line; test: Cell viability assay (ATP quantitation); type: cell-based; conditions: 50 nM, 5 days, vs non-targeting control
Method: as §1, §2

[16] = system: Sk-Mel-5 melanoma cell line; test: Cell viability assay (ATP quantitation); type: cell-based; conditions: 50 nM, 5 days, vs non-targeting control
Method: as §1, §2

[17] = system: Sk-N-AS Neuroblastoma cell line; test: Cell viability assay (ATP quantitation); type: cell-based; conditions: 50 nM, 5 days, vs non-targeting control
Method: as §1, §2

[18] = system: T98G Glioblastoma cell line; test: Cell viability assay (ATP quantitation); type: cell-based; conditions: 50 nM, 5 days, vs non-targeting control
Method: as §1, §2

[19] = system: U138-MG Glioblastoma cell line; test: Cell viability assay (ATP quantitation); type: cell-based; conditions: 50 nM, 5 days, vs non-targeting control
Method: as §1, §2

[20] = system: U20S osteosarcoma cell line; test: Cell viability assay (ATP quantitation); type: cell-based; conditions: 50 nM, 5 days, vs non-targeting control
Method: as §1, §2

[21] = system: U87-MG Glioblastoma cell line; test: Cell viability assay (ATP quantitation); type: cell-based; conditions: 50 nM, 5 days, vs non-targeting control
Method: as §1, §2

[22] = system: WM3060 melanoma cell line; test: Cell viability assay (ATP quantitation); type: cell-based; conditions: 50 nM, 5 days, vs non-targeting control
Method: as §1, §2

[23] = system: D04RM trametinib resistant melanoma cell line; test: Cell viability assay (ATP quantitation); type: cell-based; conditions: 50 nM, 5 days, vs non-targeting control
From the text: (§3) Human melanoma cell line VMM39 was purchased from American Type Culture Collection (ATCC). Human melanoma cell lines D04, MM415, WM1366, WM3629, WM3211, Sk-Mel-2 and Sk-Mel-28 were a generous gift from Boris Bastian at the University of California, San Francisco. Primary human melanoma cell line Hs852.T was purchased from the Cell Culture Core Facility (CCCF) at the University of California, San Francisco. Primary human melanoma cell line AV5 was obtained from metastasis of a melanoma patient. All experimental protocols were approved by UCSF Human Research Protection Program Institutional Review Board (IRB #12-0948), all patients signed informed consent, and methods were carried out in accordance with relevant guidelines and regulations. Resistant cell lines DO4RM, MM415RM, Sk-Mel-2RM and WM3629RM were established as previously described. [Sanlorenzo, M. et al., The lincRNA MIRAT binds to IQGAPI and modulates the MAPK pathway in NRAS mutant melanoma. Sci Rep 8, 10902 (2018).] Primary human melanocytic cell lines (PHM) from infant foreskin of five healthy donors were available in our cell repository and pooled. Melanoma cell lines were maintained in RPMI 1640 media supplemented with 10% (vol/vol) heat inactivated fetal bovine serum. Melanocytes were maintained in M254 medium with HMGS supplements (1× final solution). All cell lines were incubated at 37° C. under 5% CO2.
as §1, §2

[24] = system: MM415RM trametinib resistant melanoma cell line; test: Cell viability assay (ATP quantitation); type: cell-based; conditions: 50 nM, 5 days, vs non-targeting control
From the text: as §3, §1, §2

[25] = system: Sk-Mel-2-RM trametinib resistant melanoma cell line; test: Cell viability assay (ATP quantitation); type: cell-based; conditions: 50 nM, 5 days, vs non-targeting control
From the text: as §3, §1, §2

[26] = system: WM3629RM trametinib resistant melanoma cell line; test: Cell viability assay (ATP quantitation); type: cell-based; conditions: 50 nM, 5 days, vs non-targeting control
From the text: as §3, §1, §2

[27] = system: AC004540.4 (TRASH) in D04 cells; test: MEK-inhibitor-induced upregulation, RT-qPCR; type: cell-based, human; conditions: 72 hours, vs DMSO, normalized to GAPDH
Method: (§4) TRIzol, Phenol:chloroform:isoamyl alcohol (125:24:1) or NucleoSpin RNA kit (TaKaRa) was used for extracting Total RNA from cells and tissues according to the manufacturer's instructions. Total RNA was quantified by NanoDrop ND-1000 (Thermo Scientific) or Quibit 4 (Thermo Fisher). 50 ng or RNA was reverse transcribed using the cDNA synthesis and gDNA removal QuantiTect Reverse Transcription Kit. Real time PCR was performed using the iTaq Universal SYBR Green Supermix, 10 ng (20 ng for RIP Assay) of cDNA and on a QuantStudio™ 5 Real-Time PCR System or a 7500 fast real time PCR system. Relative gene expression was calculated using the comparative Ct method, normalized to GAPDH or β-actin. Primer sequences are listed in Supplementary Table 1.
(§5) Cells were either treated with trametinib (MEKi) or DMSO (control). Treatment period was 72 hours. CT-values were normalized to GAPDH, error bars represent standard deviation. All experiments were performed in triplicates (n=3/group). (FIG. 5b)

[28] = system: AC004540.4 (TRASH) in MM415 cells; test: MEK-inhibitor-induced upregulation, RT-qPCR; type: cell-based, human; conditions: 72 hours, vs DMSO
Method: as §4, §5

Caspase 3+7 = test: Caspase Glo 3/7 assay in D04 cell line; type: cell-based, human; conditions: ASO 50 nM, 1 day, vs control ASOs
Method: Dependent on cell doubling time, 2-3×10^^3 cells were seeded in 96 well plates. 1 day after seeding cells were incubated in media with 50 nM oligonucleotide concentration and transfection reagent. 1 day after transfection Total luminescence was measured on the SynergyHT plate reader (BioTek) using Gen5 software. Experiments were performed in quadruplicates.

Molecule	cell viability decrease (D04 melanoma cell line)	cell viability decrease [2]	cell viability decrease (MM415 melanoma cell line)	cell viability decrease [3]	cell viability decrease [4]	cell viability decrease (VMM39 melanoma cell line)	cell viability decrease [5]	cell viability decrease [6]	cell viability decrease [7]	cell viability decrease [8]	cell viability decrease [9]	cell viability decrease [11]	cell viability decrease [12]	cell viability decrease [13]	cell viability decrease (MM485 melanoma cell line)	cell viability decrease [14]	cell viability decrease [15]	cell viability decrease [16]	cell viability decrease [17]	cell viability decrease [18]	also measured
ATCATCTGGATTAGTG (chemistry not given here) [SEQ ID NO: 14, Antisense oligonucleotide targeting BX470102.3-008]	significant cell viability decrease	significant cell viability decrease	significant cell viability decrease	significant cell viability decrease	significant cell viability decrease	significant cell viability decrease	significant cell viability decrease	significant cell viability decrease	significant cell viability decrease	significant cell viability decrease	significant cell viability decrease	significant cell viability decrease	significant cell viability decrease	significant cell viability decrease	significant cell viability decrease	significant cell viability decrease	significant cell viability decrease	significant cell viability decrease	significant cell viability decrease	significant cell viability decrease	cell viability decrease [1]: significant cell viability decrease; cell viability decrease [10]: significant cell viability decrease; cell viability decrease [19]: significant cell viability decrease; cell viability decrease [20]: significant cell viability decrease; cell viability decrease [21]: significant cell viability decrease; cell viability decrease [22]: significant cell viability decrease; cell viability decrease [23]: significant cell viability decrease; cell viability decrease [24]: significant cell viability decrease; cell viability decrease [25]: significant cell viability decrease; cell viability decrease [26]: significant cell viability decrease
CC(=O)Nc1cccc(-n2c(=O)n(C3CC3)c(=O)c3c(Nc4ccc(I)cc4F)n(C)c(=O)c(C)c32)c1 [trametinib]	–	–	–	–	–	–	–	–	–	–	–	–	–	–	–	–	–	–	–	–	AC004540.4 (TRASH) upregulation ([27]; 20 nM MEKi): 3.2 fold; AC004540.4 (TRASH) enrichment ([27]; 40 nM MEKi): 5.4 fold; increase of AC004540.4 (TRASH)-expression ([28]; 20 nM MEKi): 0.31 fold; increase of AC004540.4 (TRASH)-expression ([28]; second MEKi concentration (not given)): 0.36 fold
GATCATTTAATTTGAC (QIAGEN GapmeR, modification pattern not given here) [SEQ ID NO: 18, Antisense oligonucleotide targeting RP11-7011.3-001, 002 and 003]	significant cell viability decrease	significant cell viability decrease	significant cell viability decrease	significant cell viability decrease	significant cell viability decrease	significant cell viability decrease	significant cell viability decrease	significant cell viability decrease	significant cell viability decrease	significant cell viability decrease	significant cell viability decrease	significant cell viability decrease	significant cell viability decrease	significant cell viability decrease	significant cell viability decrease	significant cell viability decrease	significant cell viability decrease	significant cell viability decrease	significant cell viability decrease	significant cell viability decrease	cell viability decrease [19]: significant cell viability decrease; cell viability decrease [20]: significant cell viability decrease; cell viability decrease [21]: significant cell viability decrease; cell viability decrease [22]: significant cell viability decrease; cell viability decrease [23]: significant cell viability decrease; cell viability decrease [24]: significant cell viability decrease; cell viability decrease [25]: significant cell viability decrease; cell viability decrease [26]: significant cell viability decrease
GACCGTAGTTAGAAGG (GapmeR, chemically modified, pattern not given here) [SEQ ID NO: 48, GapmeR antisense oligonucleotide targeting HNRNPA2/B1]	significant cell viability decrease	–	–	–	–	–	–	–	–	–	–	–	–	–	–	–	–	–	–	–	cell viability decrease (D04 melanoma cell line; listed as hnRNPA2/B1i): significant cell viability decrease; Caspase-3 &-7 activity increase (Caspase 3+7): 1.7 fold

Reference: patent US20250197864A1, “LNCRNA TRANSCRIPTS IN MELANOMAGENESIS” (The Regents of the University of California, priority 2021, published 2025)
